This note sets out measurements from patent US20060247156A1, “Use of neuropeptides for ligament, cartilage, and bone healing” (priority 2004, published 2006).

“Also recorded” adds a separate entry of the source.

In assay [1] the test system is cartilage and subchondral bone defect in the trochlear groove. The assay can be described thus: Full-thickness cartilage defect healing with substance P delivery, histological grading. It is filed as in vivo, rat. An excerpt: Purpose-bred male Wistar rats, were used in this Example. Rats were acclimated to the animal care facility for seven days before use. All rats then undergo general anesthesia for surgical induction of cartilage injury. All rats underwent bilateral surgery. At the time of surgery, miniosmotic pumps were placed for NP treatment. All pumps remained in place throughout the experiment. At various time intervals after the surgery (2, 4 and 6 weeks), the rats were euthanized each joint was harvested for histological analysis.
Cartilage Injury: A […] long incision was made over the patellar tendon and the tendon and surrounding tissue was exposed. A mini-arthrotomy was made and the patella was subluxed (dislocated) to expose the femoral condyles and trochlear groove. A drill was used to create a full thickness (3 mm deep) hole, 0.635 mm in diameter, in the trochlear groove. The patella was then repositioned and the muscle fascia and subcutaneous tissue was closed with a continuous suture pattern, and the skin apposed with skin staples.
Neuropeptide delivery: Substance P (75 pg/100 μl) was infused subcutaneously (0.25 μl/hr) via the implantation of mini-osmotic pumps (Alza Corp. Palo Alto, Calif.). In all rats, neuropeptide infused pumps were implanted in a subcutaneous pocket after induction of general anesthesia. […]

Assay [2] relates to ruptured MCL of a FNT rat. Description: Local neuropeptide delivery to ruptured MCL of femoral nerve transected (FNT) rats: mechanical testing, histomorphology. As to conditions: for failure force / ultimate stress / mechanical strength of healing MCL (in words): two weeks of healing; for mechanical strength of healing MCL (in words): local delivery of SP or CGRP. It is filed as in vivo. An excerpt: Surgical Procedure: Thirteen female Wistar rats (278 g to 315 g) were divided into two groups: femoral nerve transection (FNT) or sham control. All rats were anesthetized with isofluorane (isofluorane 0.5-3%). […] Skin covering the anterior inguinal region was shaved and prepared for surgery. A skin incision approximately 15 mm long was made and the fascia distal to the inguinal was incised. The femoral artery, vein, and nerve were exposed and the femoral nerve was isolated and transected (with removal of a 5 mm segment of the nerve) using 3-0 dexon suture. The fascia and skin were closed in two layers with 3-0 continuous dexon suture. Immediately following FNT, rats from each group (n=4 FNT; n=3 controls) underwent a complete surgical rupture of the MCL to one knee. The contra-lateral knee underwent sham surgery. Two weeks post-knee surgery, rats were sacrificed using an overdose of pentobarbitone (150 mg/kg).
Local delivery of NPs and NP inhibitors is important to identify the specific roles of individual NPs on healing tissues. […] Briefly, NP infused mini-osmotic pumps were implanted subcutaneously into the back of rats. A small catheter running from the pump to an intramuscular space above the MCL was secured to the rat.
To test whether sensory NPs improve healing in femoral nerve transection (FNT) ruptured MCLs, three female Wistar rats (199 g to 203 g) were given SP locally to the MCL. Substance P (103 pg/μl) was infused into a miniosmotic pump and was delivered to a ruptured MCL of a FNT rat (see surgical procedure in Example 1 above). […] The results are presented graphically in FIG. 5
Animal Model and Surgery: Thirty-seven female Wistar rats (199-298 g) were divided into five groups. […] Rats that were designated to receive NPY, VIP, or a combination of NPY and VIP underwent bilateral surgical sympathectomy. Following surgical nerve transection, each rat also underwent bilateral MCL rupture. Neuropeptides were then delivered ruptured MCLs unilaterally. Neuropeptide infused mini-osmotic pumps (Alzet Corp.) were implanted subcutaneously into the back of each rat. A small catheter running from the pump was run to an intramuscular space above the MCL and was secured. To ensure that neuropeptides are delivered directly to the MCL, rhodamine labeled SP was delivered via a catheter to the MCL (n=2 rats).
To test whether autonomic NPs improve healing in SS ruptured MCLs, seven rats were given VIP, seven rats were given NPY, and seven rats were given a combination of VIP and NPY.
Mechanical Testing: Mechanical testing was performed as described in the preceding examples. Briefly, animal hind limbs from all groups (n=4 for all groups) were disarticulated at the hip joint and stored at −80° C. until testing. On the day of testing, MCLs including intact femoral and tibial bone sections were excised for ex vivo testing. Ligament thickness and width was measured optically, and MCL area was estimated with elliptical geometry. For strain measurements, optical markers were placed onto the ligament tissue near the insertion sites. A small preload of 0.1N was applied to the ligaments in order to obtain a uniform starting point. The ligaments were then preconditioned to 1% strain for 10 cycles. After preconditioning, ligaments were pulled to failure at a rate of ˜10% per second. Tissue displacement was obtained using video dimensional analysis using equations (1) and (2) supra. The mechanical properties that were examined in this study were maximum force, ultimate stress, strain at failure, elastic modulus, and area.

Where [3] appears, read: Example 3: SP 103 pg/μl via mini-osmotic pump to ruptured MCL of FNT rat.
The mark [4] stands for this setting: Example 6: SP 75 pg/100 μl via mini-osmotic pump, FNT rats, bilateral MCL rupture.

With Substance P [SP], the “average cartilage repair score (0 no damage to 24)” value in assay [1] (Substance P 75 pg/100 μl, 0.25 μl/hr via mini-osmotic pump, initial two week period, Sellers grading) is recorded as 11.9. Also, the “healing of cartilage and subchondral bone (in words)” value in assay [1] (full-thickness cartilage defects after two weeks of healing) is “greatly improved healing of both the cartilage and subchondral bone”. The failure force in assay [2] (setting [3]) turned out to be 74.3 N; in assay [2] (setting [4]), 74.3±7.9 N. Besides, the values for the ultimate stress in assay [2] (setting [3]) and in assay [2] (setting [4]) were 72.33 MPa and 72.33±22.1 MPa, respectively. Further, the “histomorphology (H&E) of healing MCL” value in assay [2] (FNT rats, SP 75 pg/100 μl or CGRP 10 pg/100, two weeks) is “cells were more aligned”. In addition, the “mechanical strength of healing MCL (in words)” value is given as “greater than the strength of uninjured MCLs; also recorded: greater than that of normally innervated, intact MCLs” in assay [2] (FNT rats) and “completely reversed the functional deficits” in assay [2] (FNT rats, listed as Substance P).
